What all share (design): species or system A/J mice
One test has as its system 5A12 mAb. As to conditions: free analogue 0.00035-200 μM inhibiting binding of mAb 5A12 to Oua-BGG. On the procedure:
(§1) Competition ELISA was used first to determine the relative affinity of each mAb for Oua and Dig. The 96-well PVC plates were coated with 50 μl of 5 μg/ml Oua-BGG in PBSA. First we determined the Ab concentration which was not in excess of immobilized antigen. Using the direct binding assay described above, the concentration of Ab at which 50% binding was achieved was ascertained. Inhibition of binding of Abs to Oua-BGG was determined by adding 25 μl Ab (concentrations as determined above) and 25 μl of free Oua (0.001-200 μM, 2-fold dilutions). Percent inhibition is the ratio (OD450 in the presence of 1% BSA−OD450 in the presence of Oua)/(OD450 in the presence of 1% BSA)×100. The relative affinity (IC50) is the Oua concentration that inhibits 50% of the binding of Ab to Oua-BGG.
Competition ELISA was used to determine the cross reactivity of the mAbs with different digitalis glycosides (Oua, Dig, gitoxin and digitoxin and their derivatives listed in Tables I and II) and with endogenous steroid hormones (cortisone, corticosterone and progesterone). In these assays binding of mAbs to Oua-BGG was determined in the presence or absence of various concentrations (0.00035-200 μM) of free digitalis glycosides and steroid hormones as described above. […]

The next test concerns 26-10 mAb. As to conditions: free analogue 0.00035-200 μM inhibiting binding of mAb 26-10 to Oua-BGG. On the procedure: as §1
(§2) Competition ELISA was used to determine the cross reactivity of the mAbs with different digitalis glycosides (Oua, Dig, gitoxin and digitoxin and their derivatives listed in Tables I and II) and with endogenous steroid hormones (cortisone, corticosterone and progesterone). In these assays binding of mAbs to Oua-BGG was determined in the presence or absence of various concentrations (0.00035-200 μM) of free digitalis glycosides and steroid hormones as described above.
(§3) Inhibition assays were performed to identify clones that produce mAbs, the binding of which to Oua-BGG could be inhibited with free Oua at μM concentrations. Abs were titrated in direct binding assays to determine the concentration equivalent to 35-50% binding to Oua-BGG. Binding of Abs to Oua-BGG was determined in the presence or absence of 0.00035-200 μM of free Oua. Ab binding was detected using HRP-goat anti-mouse Ab. […] Percentage inhibition was calculated as described in Materials and Methods.

A further test relates to 7-1 mAb. As to conditions: free analogue 0.00035-200 μM inhibiting binding of mAb 7-1 to Oua-BGG. The procedure: as §1, §2, §3
Another test relates to 1-10 mAb. As to conditions: free analogue 0.00035-200 μM inhibiting binding of mAb 1-10 to Oua-BGG. On the procedure:
as §1, §2, §3

`C[C@H]1O[C@@H](O[C@H]2CC[C@]3(C=O)[C@H]4CC[C@]5(C)[C@@H](C6=CC(=O)OC6)CC[C@]5(O)[C@@H]4CC[C@]3(O)C2)C[C@H](O)[C@@H]1O` [Helveticoside]: the IC50 in the test with 5A12 mAb stood at 150 µM; in the test with 26-10 mAb, 0.2 µM; with 7-1 mAb, 150 µM; with 1-10 mAb, 150 µM.

In the case of `C[C@H]1O[C@@H](O[C@H]2[C@@H](O)C[C@H](O[C@H]3[C@@H](O)C[C@H](O[C@H]4CC[C@@]5(C)[C@H](CC[C@@H]6[C@@H]5CC[C@]5(C)[C@@H](C7=CC(=O)OC7)[C@@H](O)C[C@]65O)C4)O[C@@H]3C)O[C@@H]2C)C[C@H](O)[C@@H]1O` [Gitoxin], the IC50 with 5A12 mAb is 100 µM; in the test with 26-10 mAb it was 1.5 µM; in the test on 7-1 mAb it was greater than 100 µM; with 1-10 mAb, greater than 100 µM.

Consider `C[C@]12CC[C@H](O)C[C@H]1CC[C@@H]1[C@@H]2CC[C@]2(C)[C@@H](C3=CC(=O)OC3)CC[C@]12O` [Digitoxigenin], for which the IC50 in the test on 5A12 mAb came to 4 µM; in the test on 26-10 mAb, 0.04 µM; in the test on 7-1 mAb, 4 µM; with 1-10 mAb, 4 µM.

For `CC(=O)OC1CCC2(C)C(CCC3C2CCC2(C)C(C4=CC(=O)OC4)C(OC(C)=O)CC32O)C1` (stereo not shown) [Gitoxigenin-3,16-diacetate], the concentration for half-maximal inhibition (IC50) with 5A12 mAb, with 26-10 mAb, in the test on 7-1 mAb and in the test on 1-10 mAb was greater than 100 µM throughout.

As for `CC(=O)[C@H]1CC[C@H]2[C@@H]3CCC4=CC(=O)CC[C@]4(C)[C@H]3CC[C@]12C` [Progesterone], the IC50 was greater than 100 µM in the test with 5A12 mAb, 2 µM with 26-10 mAb, greater than 100 µM in the test with 7-1 mAb and greater than 100 µM in the test with 1-10 mAb.

`CC(=O)O[C@H]1C[C@]2(O)[C@@H]3CC[C@@H]4C[C@@H](O[C@H]5C[C@H](O)[C@H](O[C@H]6C[C@H](O)[C@H](O[C@H]7C[C@H](O)[C@H](O)[C@@H](C)O7)[C@@H](C)O6)[C@@H](C)O5)CC[C@]4(C)[C@H]3CC[C@]2(C)[C@H]1C1=CC(=O)OC1` [16-acetylgitoxin]: the IC50 is greater than 100 µM in the test with 5A12 mAb, 0.5 µM in the test with 26-10 mAb, greater than 100 µM in the test with 7-1 mAb and greater than 100 µM with 1-10 mAb.

On to `CC(=O)O[C@H]1CC[C@@]2(C)[C@H](CC[C@@H]3[C@@H]2C[C@@H](OC(C)=O)[C@]2(C)[C@@H](C4=CC(=O)OC4)CC[C@]32O)C1` [Digoxigenin-3,12-diacetate], for which the IC50 is greater than 100 µM with 5A12 mAb, 6 µM in the test on 26-10 mAb, greater than 100 µM with 7-1 mAb and greater than 100 µM in the test with 1-10 mAb.

`C[C@]12CCC(=O)C=C1CC[C@@H]1[C@@H]2C(=O)C[C@@]2(C)[C@H]1CC[C@]2(O)C(=O)CO` [Cortisone]: the IC50 with 5A12 mAb is greater than 100 µM; in the test with 26-10 mAb, 100 µM; in the test on 7-1 mAb, greater than 100 µM; in the test with 1-10 mAb it was greater than 100 µM.

Regarding `C[C@@H]1O[C@@H](O[C@H]2C[C@@H](O)[C@]3(CO)[C@H]4[C@H](O)C[C@]5(C)[C@@H](C6=CC(=O)OC6)CC[C@]5(O)[C@@H]4CC[C@]3(O)C2)[C@H](O)[C@H](O)[C@H]1O` [Ouabain], the IC50 in the test on 5A12 mAb was determined as 10 µM; in the test on 26-10 mAb it was 0.37 µM; in the test with 7-1 mAb, 20 µM; with 1-10 mAb, 25 µM.

For the molecule `C[C@H]1O[C@@H](O[C@H]2[C@@H](O)C[C@H](O[C@H]3[C@@H](O)C[C@H](O[C@H]4CC[C@@]5(C)[C@H](CC[C@@H]6[C@@H]5C[C@@H](O)[C@]5(C)[C@@H](C7=CC(=O)OC7)CC[C@]65O)C4)O[C@@H]3C)O[C@@H]2C)C[C@H](O)[C@@H]1O` [Digoxin], the half-maximal inhibitory concentration (IC50) with 5A12 mAb is greater than 100 µM; with 26-10 mAb it was 0.006 µM; in the test with 7-1 mAb it was greater than 100 µM; in the test with 1-10 mAb, greater than 100 µM.

On to `C[C@H]1O[C@@H](O[C@H]2[C@@H](O)C[C@H](O[C@H]3[C@@H](O)C[C@H](O[C@H]4CC[C@@]5(C)[C@H](CC[C@@H]6[C@@H]5CC[C@]5(C)[C@@H](C7=CC(=O)OC7)CC[C@]65O)C4)O[C@@H]3C)O[C@@H]2C)C[C@H](O)[C@@H]1O` [Digitoxin], for which the half-maximal inhibitory concentration (IC50) worked out at 3 µM in the test with 5A12 mAb, 0.02 µM with 26-10 mAb, 3 µM with 7-1 mAb and 3 µM with 1-10 mAb.

With `C[C@]12CC[C@H]3[C@@H](CC[C@]4(O)C[C@@H](O)CC[C@]34C=O)[C@@]1(O)CC[C@@H]2C1=CC(=O)OC1` [Strophanthidin], the 50% inhibitory concentration (IC50) in the test on 5A12 mAb amounted to 4 µM; in the test with 26-10 mAb, 0.2 µM; in the test with 7-1 mAb it was 10 µM; with 1-10 mAb, 10 µM.

Take `C[C@]12C[C@@H](O)[C@H]3[C@@H](CC[C@]4(O)C[C@@H](O)C[C@@H](O)[C@]34CO)[C@@]1(O)CC[C@@H]2C1=CC(=O)OC1` [Ouabagenin]: the IC50 with 5A12 mAb is 16 µM; in the test with 26-10 mAb, 0.4 µM; in the test with 7-1 mAb, 30 µM; with 1-10 mAb, 30 µM.

Take `CC(=O)O[C@H]1CC[C@]2(C=O)[C@H]3CC[C@]4(C)[C@@H](C5=CC(=O)OC5)CC[C@]4(O)[C@@H]3CC[C@]2(O)C1` [Acetylstrophanthidin]: the IC50 is 2 µM in the test on 5A12 mAb, 0.2 µM in the test with 26-10 mAb, 6 µM in the test with 7-1 mAb and 6 µM in the test with 1-10 mAb.

`CC(=O)O[C@H]1C[C@]2(O)[C@@H]3CC[C@@H]4C[C@@H](O)CC[C@]4(C)[C@H]3CC[C@]2(C)[C@H]1C1=CC(=O)OC1` [Oleandrigenin]: the IC50 in the test on 5A12 mAb, with 26-10 mAb, in the test on 7-1 mAb and in the test with 1-10 mAb was greater than 100 µM in each case.

For `C[C@@H]1O[C@@H](O[C@H]2CC[C@]3(C=O)[C@H]4CC[C@]5(C)[C@@H](C6=CC(=O)OC6)CC[C@]5(O)[C@@H]4CC[C@]3(O)C2)[C@H](O)[C@H](O)[C@H]1O` [Convallatoxin], the concentration for half-maximal inhibition (IC50) in the test on 5A12 mAb was 2 µM; in the test with 26-10 mAb it was 0.1 µM; in the test with 7-1 mAb, 3 µM; in the test with 1-10 mAb, 3 µM.

For the molecule `CO[C@@H]1[C@H](O)[C@@H](O[C@@H]2C[C@H]3CC[C@@H]4[C@H](CC[C@]5(C)[C@@H](C6=CC(=O)OC6)CC[C@]45O)[C@@]3(C)[C@H](O)C2)O[C@@H](C)[C@@H]1O` [Acovenoside], the IC50 in the test on 5A12 mAb came to 5 µM; with 26-10 mAb it was 0.2 µM; with 7-1 mAb, 8 µM; with 1-10 mAb, 8 µM.

Turning to `CO[C@H]1C[C@H](O[C@H]2CC[C@@]3(C)[C@H](CC[C@@H]4[C@@H]3CC[C@]3(C)[C@@H](C5=CC(=O)OC5)[C@@H](OC(C)=O)C[C@]43O)C2)O[C@@H](C)[C@@H]1O` [Oleandrin], the half-inhibitory concentration (IC50) in the test with 5A12 mAb, in the test with 26-10 mAb, in the test on 7-1 mAb and with 1-10 mAb was greater than 100 µM in each case.

On to `C[C@]12C[C@H](O)[C@H]3[C@@H](CCC4=CC(=O)CC[C@@]43C)[C@@H]1CC[C@@H]2C(=O)CO` [Corticosterone], for which the IC50 in the test on 5A12 mAb, in the test with 26-10 mAb, in the test on 7-1 mAb and with 1-10 mAb was greater than 100 µM each time.

The values are drawn from patent US7348412B1, “Ouabain-specific monoclonal antibodies” (priority 1999, dated 2008).
